For 15 molecules, pest or weed control results are on record in patent US9204653B2, “5-fluoro pyrimidine derivatives” (DOW AGROSCIENCES LLC, priority 2008, dated 2015).

Like-named read-outs stand apart in the source and are kept apart here.

This test relates to Mycosphaerella graminicola; Anamorph: Septoria tritici; Bayer Code SEPTTR. The test can be described thus: Leaf blotch of wheat, foliar fungicide treatment, one day protectant (1DP) or three day curative (3DC). The format is in vivo, Septoria tritici on wheat plants (variety Yuma). As to conditions: Zymoseptoria tritici, rating of percent disease control.
Setting [1] is: 24 h, one day protectant (1DP), read-out: SETTTR 1DP 25 ppm.
The mark [2] stands for this setting: 24 h, one day protectant (1DP), read-out: SEPTTR 1DP 100 ppm.
[3] abbreviates: 72 h, three day curative (3DC), read-out: SEPTTR 3DC 25 ppm.
Where [4] appears, read: 72 h, three day curative (3DC), read-out: SEPTTR 3DC 100 ppm.

Consider `Cc1noc(-c2ccccc2COc2ncc(F)c(N)n2)n1` [Compound 486], for which the pest or weed control at 25 ppm under setting [1] fell in the range of 0 to 25% and the pest or weed control at 25 ppm under setting [3] was in the range of 26 to 50%. Further, the pest or weed control at 100 ppm reads like this: under setting [2], 0 to 25%; under setting [4], 26 to 50%.

Consider `CN(O)c1nc(OCc2ccc(F)cc2)ncc1F` [Compound 487], for which the pest or weed control at 25 ppm runs as follows: under setting [1], 0 to 25%; under setting [3], 0 to 25%. Further, the pest or weed control at 100 ppm by setting is: under setting [2], 76 to 100%; under setting [4], 76 to 100%.

Take `CC#CCOc1ncc(F)c(N)n1` [Compound 489]: the pest or weed control at 25 ppm runs as follows: under setting [1], 0 to 25%; under setting [3], 76 to 100%. Also, the pest or weed control at 100 ppm is, setting by setting: under setting [2], 51 to 75%; under setting [4], 76 to 100%.

For `CCOC(=O)Nc1nc(OCc2ccc(C)cc2)ncc1F` [Compound 490], the pest or weed control at 25 ppm runs as follows: under setting [1], 76 to 100%; under setting [3], 76 to 100%. Further, the pest or weed control at 100 ppm by setting is: under setting [2], 76 to 100%; under setting [4], 76 to 100%.

With `Fc1ccc(COc2ncc(F)c(NNC3CCCCC3)n2)cc1` [Compound 492], the pest or weed control at 25 ppm is, setting by setting: under setting [1], 0 to 25%; under setting [3], 0 to 25%. Further, the pest or weed control at 100 ppm reads like this: under setting [2], 26 to 50%; under setting [4], 26 to 50%.

With `Fc1cnc(OCc2ccccc2)nc1NNC1CCCCC1` [Compound 493], the pest or weed control at 25 ppm under setting [1] fell in the range of 0 to 25% and the pest or weed control at 25 ppm under setting [3] is 0 to 25%. Besides, the pest or weed control at 100 ppm reads like this: under setting [2], 26 to 50%; under setting [4], 0 to 25%.

With `CN(C)/C=N/c1nc(OCc2cccc(F)c2)ncc1F` [Compound 494], the pest or weed control at 25 ppm by setting is: under setting [1], 76 to 100%; under setting [3], 76 to 100%. Also, the pest or weed control at 100 ppm was in the range of 76 to 100% under setting [2] and 76 to 100% under setting [4].

Consider `Cc1ccc(COc2ncc(F)c(NC(=O)Cc3ccccc3)n2)cc1` [Compound 497], for which the pest or weed control at 25 ppm under setting [1] was 51 to 75% and the pest or weed control at 25 ppm under setting [3] lay in the range of 0 to 25%. For the same molecule, the pest or weed control at 100 ppm by setting is: under setting [2], 76 to 100%; under setting [4], 26 to 50%.

As for `CCOCNc1nc(OCc2cccc(F)c2)ncc1F` [Compound 498], the pest or weed control at 25 ppm is, setting by setting: under setting [1], 76 to 100%; under setting [3], 76 to 100%. In addition, the pest or weed control at 100 ppm under setting [2] lay within 76 to 100% and the pest or weed control at 100 ppm under setting [4] was 76 to 100%.

For `Cc1c(F)c(F)c(COc2ncc(F)c(N)n2)c(F)c1F` [Compound 500], the pest or weed control at 25 ppm by setting is: under setting [1], 76 to 100%; under setting [3], 76 to 100%. Further, the pest or weed control at 100 ppm reads like this: under setting [2], 76 to 100%; under setting [4], 76 to 100%.

`O=C(Nc1nc(OCc2ccc(F)cc2)ncc1F)C(F)F` [Compound 501]: the pest or weed control at 25 ppm lay in the range of 76 to 100% under setting [1] and 76 to 100% under setting [3]. In addition, the pest or weed control at 100 ppm reads like this: under setting [2], 76 to 100%; under setting [4], 76 to 100%.

Consider `CC(Oc1ncc(F)c(N)n1)c1cc(Cl)c(Cl)cc1Cl` (stereo not drawn) [Compound 502], for which the pest or weed control at 25 ppm is, setting by setting: under setting [1], 0 to 25%; under setting [3], 0 to 25%. Further, the pest or weed control at 100 ppm reads like this: under setting [2], 0 to 25%; under setting [4], 0 to 25%.

In the case of `CC[Si](CC)(CC)Nc1nc(OCc2cccs2)ncc1F` [Compound 503], the pest or weed control at 25 ppm under setting [1] lay in the range of 76 to 100% and the pest or weed control at 25 ppm under setting [3] is 76 to 100%. Moreover, the pest or weed control at 100 ppm under setting [2] was 76 to 100% and the pest or weed control at 100 ppm under setting [4] fell in the range of 76 to 100%.

On to `N#Cc1cccc(COc2ncc(F)c(NC(=S)NCc3ccccc3F)n2)c1` [Compound 504], for which the pest or weed control at 25 ppm is, setting by setting: under setting [1], 0 to 25%; under setting [3], 0 to 25%. Also, the pest or weed control at 100 ppm is, setting by setting: under setting [2], 51 to 75%; under setting [4], 0 to 25%.

Regarding `Fc1cnc(OCc2cccs2)nc1NCOCc1ccccc1` [Compound 506], the pest or weed control at 25 ppm reads like this: under setting [1], 26 to 50%; under setting [3], 0 to 25%. Besides, the pest or weed control at 100 ppm under setting [2] was 76 to 100% and the pest or weed control at 100 ppm under setting [4] lay in the range of 0 to 25%.
